Results: ChEMBL document CHEMBL1148279, “Effects of bisphosphonates on the growth of Entamoeba histolytica and Plasmodium species in vitro and in vivo” (J Med Chem, 2004)

Key:
Entamoeba histolytica = assay: In vitro growth inhibition against Entamoeba histolytica; type: functional, organism-based
[1] = Inhibitory activity against Entamoeba histolytica pyrophosphate-dependent phosphofructokinase (PFK); type: functional
[2] = Therapeutic index was expressed as ratio of LD50 for KB cell line to IC50 against Entamoeba histolytica; type: cell-based; conditions: human, KB cells; read-out: TI
[3] = Therapeutic index was expressed as ratio of LD50 for KB cell line to IC50 against Plasmodium falciparum; type: cell-based; conditions: human, KB cells; read-out: TI
in vitro = conditions: human, KB cells (nasopharyngeal carcinoma)
Description: Toxicity evaluated against human nasopharyngeal carcinoma KB cell line

Plasmodium falciparum = assay: microbe, parasite or virus in culture
Description: In vitro growth inhibition against Plasmodium falciparum

Cricetinae gen. sp. [4] = assay: Percent decrease of amebic liver abscess (mg) formation in Entamoeba histolytica infected hamsters (treated at 10 mg/kg ip once a day for 5 days); type: functional; conditions: route intraperitoneal
Cricetinae gen. sp. [5] = assay: Percent decrease of normal liver weight (mg) in Entamoeba histolytica infected hamsters (treated at 10 mg/kg ip once a day for 5 days); type: functional, Cricetulus griseus; conditions: route intraperitoneal
Cricetinae gen. sp. [6] = assay: Mean effect on amebic liver abscess (mg) formation in Entamoeba histolytica infected hamsters (treated at 10 mg/kg ip once a day for 5 days); type: functional, Cricetulus griseus; conditions: route intraperitoneal
Cricetinae gen. sp. [7] = assay: Mean effect on normal liver weight (mg) in Entamoeba histolytica infected hamsters (treated at 10 mg/kg ip once a day for 5 days); type: functional, Cricetulus griseus; conditions: route intraperitoneal

Structure (SMILES) | IC50 (Entamoeba histolytica) [µM] | IC50 [1] [µM] | selectivity ratio [2] | selectivity ratio [3] | CC50 (in vitro) [µM] | IC50 (Plasmodium falciparum) [µM] | Decrease (Cricetinae gen. sp. [4]) [%] | Decrease (Cricetinae gen. sp. [5]) [%] | Mean effect (Cricetinae gen. sp. [6]) [mg] | Mean effect (Cricetinae gen. sp. [7]) [mg]
O=P(O)(O)C(O)(Cc1cccnc1)P(=O)(O)O [RISEDRONIC ACID] | 73.5 | > 3000 | – | – | – | – | – | – | – | –
CCCCCCCCCCCCCC(O)(P(=O)(O)O)P(=O)(O)O | 74 | – | 0.5 | 17.4 | 36.8 | 2.12 | – | – | – | –
O=P(O)(O)C(Nc1cccc(-c2ccccc2)c1)P(=O)(O)O | 6.6 | 90 | – | – | 749 | > 200 | 36 | -4 | 570 | 2459
O=P(O)(O)C(NCCCc1ccccc1)P(=O)(O)O | 15.6 | – | > 62.2 | – | > 970 | > 200 | – | – | – | –
O=P(O)(O)C(Nc1ccc(O)nc1)P(=O)(O)O | 96.1 | – | 2.67 | 1.3 | 257 | 197 | – | – | – | –
CC(C)N(C(C)C)C(P(=O)(O)O)P(=O)(O)O [(DIISOPROPYLAMINO)METHYLENEDIPHOSPHONIC ACID] | 194 | – | 4.39 | – | 852 | > 200 | – | – | – | –
CCN(CC)C(P(=O)(O)O)P(=O)(O)O [(DIETHYLAMINO)METHYLENEDIPHOSPHONIC ACID] | 62.6 | – | 12.9 | 8.98 | – | 90.1 | – | – | – | –
O=P(O)(O)C(Nc1cccnc1)P(=O)(O)O | 60 | – | 13 | – | 782 | > 200 | – | – | – | –
CCCCc1ccc(NC(P(=O)(O)O)P(=O)(O)O)cc1 | 172 | – | 1.62 | 8.89 | 278 | 31.3 | – | – | – | –
CCC(C)CNC(P(=O)(O)O)P(=O)(O)O (stereo not drawn) | 135 | – | 2.92 | – | 394 | > 200 | – | – | – | –
CCCCCCC(CCCC)C(O)(P(=O)(O)O)P(=O)(O)O (stereo not drawn) | 12.4 | 1000 | 19.1 | – | 228 | > 200 | – | – | – | –
CC(C)(C)c1cc(NC(P(=O)(O)O)P(=O)(O)O)cc(C(C)(C)C)c1 | 19.2 | – | 33 | – | 634 | > 200 | – | – | – | –
O=P(O)(O)C(NC1CCCCCCC1)P(=O)(O)O [(CYCLOOCTYLAMINO)METHYLENEDIPHOSPHONIC ACID] | 15.5 | – | 22.9 | – | 354 | > 200 | – | – | – | –
O=P(O)(O)C(N1CCOCC1)P(=O)(O)O [MORPHOLINOMETHYLENEDIPHOSPHONIC ACID] | > 200 | – | – | 52.4 | 964 | 18.4 | – | – | – | –
O=P(O)(O)C(Nc1ccc(I)cn1)P(=O)(O)O | 39.5 | – | 11.8 | – | 466 | > 200 | – | – | – | –
CCCCCNC(P(=O)(O)O)P(=O)(O)O [(PENTYLAMINO)METHYLENEDIPHOSPHONIC ACID] | > 200 | – | – | > 240 | > 1150 | 4.8 | – | – | – | –
O=P(O)(O)C(O)(CCNCCCCc1ccccc1)P(=O)(O)O | 20.5 | – | > 35.5 | – | > 727 | > 200 | – | – | – | –
CN(CCOc1ccccc1)CCC(O)(P(=O)(O)O)P(=O)(O)O | 6.49 | – | – | – | 312 | 31.4 | -19 | 3 | 1058 | 2295
O=P(O)(O)C(O)(CSc1ccncc1)P(=O)(O)O | > 200 | – | – | > 4.72 | > 746 | – | – | – | – | –

Structure (SMILES) | IC50 (Entamoeba histolytica) [µM] | IC50 [1] [µM] | selectivity ratio [2] | selectivity ratio [3] | CC50 (in vitro) [µM] | IC50 (Plasmodium falciparum) [µM] | Decrease (Cricetinae gen. sp. [4]) [%] | Decrease (Cricetinae gen. sp. [5]) [%] | Mean effect (Cricetinae gen. sp. [6]) [mg] | Mean effect (Cricetinae gen. sp. [7]) [mg]
CCCCCCCCCCCC(O)(P(=O)(O)O)P(=O)(O)O | 63.7 | 40 | – | – | – | 1.07 | – | – | – | –
CC(C)CCNC(P(=O)(O)O)P(=O)(O)O [(ISOPENTYLAMINO)METHYLENEDIPHOSPHONIC ACID] | 36.9 | – | 13 | – | 480 | > 200 | – | – | – | –
O=P(O)(O)C(NC1CCCC1)P(=O)(O)O [(CYCLOPENTYLAMINO)METHYLENEDIPHOSPHONIC ACID] | 35.9 | – | 17.5 | – | 629 | > 200 | – | – | – | –
CCCCCCCCCCC(O)(P(=O)(O)O)P(=O)(O)O | 11 | 20 | – | – | > 806 | 5.23 | 68 | 9 | 285 | 2163
CCCCCCCCNC(P(=O)(O)O)P(=O)(O)O [(OCTYLAMINO)METHYLENEDIPHOSPHONIC ACID] | 31.1 | > 3000 | 2.15 | 5.02 | – | 13.3 | – | – | – | –
O=P(O)(O)C(Nc1cc(Br)cc(Br)n1)P(=O)(O)O | 28.5 | – | 18.2 | – | 520 | > 200 | 14 | -22 | 767 | 2883
CCCCC(O)(P(=O)(O)O)P(=O)(O)O | > 200 | – | – | > 18.4 | > 1040 | – | – | – | – | –
CCCCCCNC(P(=O)(O)O)P(=O)(O)O [(HEXYLAMINO)METHYLENEDIPHOSPHONIC ACID] | > 200 | – | – | > 17.1 | > 966 | 56.5 | – | – | – | –
O=P(O)(O)C(Nc1ccc(-c2ccccc2)cc1)P(=O)(O)O | 8.76 | – | 56.5 | 6.46 | 495 | 76.6 | – | – | – | –
Cc1cc(C)nc(NC(P(=O)(O)O)P(=O)(O)O)c1 | 177 | – | 3.58 | – | 633 | > 200 | – | – | – | –
CN(CCCc1ccccc1)CCC(O)(P(=O)(O)O)P(=O)(O)O | 45.1 | – | 8.4 | 16.6 | 379 | 22.8 | – | – | – | –
CN(CCCCc1ccccc1)CCC(O)(P(=O)(O)O)P(=O)(O)O | 23.4 | – | – | – | > 690 | 2.9 | 89 | 26 | 94 | 1756
CCCCCCCCCCCCCCCC(O)(P(=O)(O)O)P(=O)(O)O | 44 | – | > 16.6 | > 25.3 | > 729 | 28.8 | – | – | – | –
CN(CCc1ccccc1)CCC(O)(P(=O)(O)O)P(=O)(O)O | 143 | – | > 5.2 | > 22 | > 739 | 33.5 | – | – | – | –
CCCCOc1ccc(NC(P(=O)(O)O)P(=O)(O)O)cc1 | 3.98 | – | 52.7 | – | 210 | > 200 | – | – | – | –
CCCCCC(C)NC(P(=O)(O)O)P(=O)(O)O (stereo not drawn) | 65.3 | – | > 15.1 | > 9.64 | > 989 | 103 | – | – | – | –
CCCCCCCCCNC(P(=O)(O)O)P(=O)(O)O [(NONYLAMINO)METHYLENEDIPHOSPHONIC ACID] | 136 | – | > 6.76 | > 8.18 | > 919 | 112 | – | – | – | –
CCCCCCc1ccc(NC(P(=O)(O)O)P(=O)(O)O)cc1 | 132 | – | 2.83 | 8.06 | 373 | 46.3 | – | – | – | –
